Values joined by “and” are separate entries in the source; they are usually repeats but may differ in a detail not shown here. Equal entries are not always repeated.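 Interpolation was linear, between the two tested concentrations surrounding the appropriate level; five concentrations were tested over 48 hours in 96-well plates. The concentration for 50% growth inhibition is given as GI50. TGI: total growth inhibition.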
Key:
Assay in all cases: NCI anticancer screen, dose series, 48 h
BT-549 breast = test system: BT-549 breast
COLO 205 colon = test system: COLO 205 colon
HCT-15 colon = test system: HCT-15 colon
IGROV1 ovarian = test system: IGROV1 ovarian
K-562 leukemia = test system: K-562 leukemia
M14 melanoma = test system: M14 melanoma
MALME-3M melanoma = test system: MALME-3M melanoma
NCI/ADR-RES ovarian = test system: NCI/ADR-RES ovarian
OVCAR-4 ovarian = test system: OVCAR-4 ovarian
RPMI-8226 leukemia = test system: RPMI-8226 leukemia
SK-MEL-2 melanoma = test system: SK-MEL-2 melanoma
SN12C renal = test system: SN12C renal
SNB-75 CNS = test system: SNB-75 CNS
T-47D breast = test system: T-47D breast

Compound N/N=C(/CC(O)(C(F)(F)F)C(F)(F)F)c1ccccc1 has a TGI (BT-549 breast) of over 10 µM, a TGI (COLO 205 colon) of over 10 µM and a TGI (HCT-15 colon) of over 10 µM. For the same compound, the TGI (IGROV1 ovarian) was over 10 µM, the TGI (K-562 leukemia) was over 10 µM and the TGI (M14 melanoma) was over 10 µM. The TGI (MALME-3M melanoma) was over 10 µM, the TGI (NCI/ADR-RES ovarian) was over 10 µM and the TGI (OVCAR-4 ovarian) was over 10 µM. The TGI (RPMI-8226 leukemia) was over 10 µM, the TGI (SK-MEL-2 melanoma) was over 10 µM and the TGI (SN12C renal) was over 10 µM. The TGI (SNB-75 CNS) was over 10 µM and the TGI (T-47D breast) was over 10 µM.
With CCC1(CC)C(=O)NN(C(=O)c2ccc(Cl)cc2)C1=O the TGI (BT-549 breast) was over 100 µM, the TGI (COLO 205 colon) was over 100 µM and the TGI (HCT-15 colon) was over 100 µM. For the same compound, the TGI (IGROV1 ovarian) was over 100 µM, the TGI (K-562 leukemia) was over 100 µM and the TGI (M14 melanoma) was over 100 µM. For the same compound, the TGI (MALME-3M melanoma) was 18.1 µM, the TGI (NCI/ADR-RES ovarian) was over 100 µM and the TGI (OVCAR-4 ovarian) was over 100 µM. The TGI (RPMI-8226 leukemia) was over 100 µM, the TGI (SK-MEL-2 melanoma) was over 100 µM and the TGI (SN12C renal) was over 100 µM. The TGI (SNB-75 CNS) was over 100 µM and the TGI (T-47D breast) was over 100 µM.
CC(C)(C)CN1[C@@H]2CCCC[C@H]2N(CC(C)(C)C)P1(=O)C(O)/C=C/c1ccccc1 (some centres not stated) was tested, and the TGI (BT-549 breast) was over 100 µM, the TGI (COLO 205 colon) was 34.2 µM and the TGI (HCT-15 colon) was over 100 µM. The TGI (IGROV1 ovarian) was over 100 µM, the TGI (K-562 leukemia) was over 100 µM and the TGI (M14 melanoma) was over 100 µM. It also gave a TGI (MALME-3M melanoma) of 87.7 µM, a TGI (NCI/ADR-RES ovarian) of over 100 µM and a TGI (OVCAR-4 ovarian) of over 100 µM. It also gave a TGI (RPMI-8226 leukemia) of 56.1 µM, a TGI (SK-MEL-2 melanoma) of 93.1 µM and a TGI (SN12C renal) of 57.5 µM. It also gave a TGI (SNB-75 CNS) of over 100 µM and a TGI (T-47D breast) of over 100 µM.
With Oc1ccccc1-c1n[nH]c(-c2ccccc2O)n1 the TGI (BT-549 breast) was over 100 µM, the TGI (COLO 205 colon) was over 85.8 µM and the TGI (HCT-15 colon) was over 33.6 µM. The TGI (IGROV1 ovarian) was over 100 µM, the TGI (K-562 leukemia) was over 100 µM and the TGI (M14 melanoma) was over 100 µM. The TGI (MALME-3M melanoma) was over 100 µM, the TGI (NCI/ADR-RES ovarian) was over 100 µM and the TGI (OVCAR-4 ovarian) was over 100 µM. For the same compound, the TGI (RPMI-8226 leukemia) was over 31.1 µM, the TGI (SK-MEL-2 melanoma) was over 100 µM and the TGI (SN12C renal) was over 100 µM. The TGI (SNB-75 CNS) was over 100 µM and the TGI (T-47D breast) was 78.5 µM.
For CC1=NN(C(=O)CC(=O)Nc2ccc(Cl)cc2)C(=O)C1N=Nc1ccc(S(=O)(=O)c2ccc(N=NC3C(=O)N(C(=O)CC(=O)Nc4ccc(Cl)cc4)N=C3C)cc2)cc1 (configuration not stated), the TGI (BT-549 breast) was over 100 µM, the TGI (COLO 205 colon) was over 100 µM and the TGI (HCT-15 colon) was over 100 µM. For the same compound, the TGI (IGROV1 ovarian) was over 100 µM, the TGI (K-562 leukemia) was over 100 µM and the TGI (M14 melanoma) was over 100 µM. The TGI (MALME-3M melanoma) was over 100 µM, the TGI (NCI/ADR-RES ovarian) was over 100 µM and the TGI (OVCAR-4 ovarian) was over 100 µM. The TGI (RPMI-8226 leukemia) was over 100 µM, the TGI (SK-MEL-2 melanoma) was over 100 µM and the TGI (SN12C renal) was over 100 µM. It also gave a TGI (SNB-75 CNS) of over 100 µM and a TGI (T-47D breast) of over 100 µM.
For O=C1OC(C2Cc3ccc4c(c3C2=O)CCCC4)c2ccccc21 (configuration not stated), the TGI (BT-549 breast) was over 100 µM, the TGI (COLO 205 colon) was over 100 µM and the TGI (HCT-15 colon) was over 100 µM. It also gave a TGI (IGROV1 ovarian) of over 100 µM, a TGI (K-562 leukemia) of over 100 µM and a TGI (M14 melanoma) of over 100 µM. It also gave a TGI (MALME-3M melanoma) of over 100 µM, a TGI (NCI/ADR-RES ovarian) of over 100 µM and a TGI (OVCAR-4 ovarian) of over 100 µM. The TGI (RPMI-8226 leukemia) was over 100 µM, the TGI (SK-MEL-2 melanoma) was over 100 µM and the TGI (SN12C renal) was over 100 µM. The TGI (SNB-75 CNS) was over 100 µM and the TGI (T-47D breast) was over 100 µM.
Nc1ncc(N)c(NCC2(CO)CC(CCc3ccccc3)C2)n1 (configuration not stated) showed a TGI (BT-549 breast) of 23.1 µM, a TGI (COLO 205 colon) of 16.8 µM and a TGI (HCT-15 colon) of 36.5 µM. For the same compound, the TGI (IGROV1 ovarian) was 22.4 µM, the TGI (K-562 leukemia) was 12.9 µM and the TGI (M14 melanoma) was 24 µM. For the same compound, the TGI (MALME-3M melanoma) was 23.7 µM, the TGI (NCI/ADR-RES ovarian) was 40.9 µM and the TGI (OVCAR-4 ovarian) was 20.8 µM. The TGI (RPMI-8226 leukemia) was 4.78 µM, the TGI (SK-MEL-2 melanoma) was 23 µM and the TGI (SN12C renal) was 24.9 µM. It also gave a TGI (SNB-75 CNS) of 29.4 µM and a TGI (T-47D breast) of 9.82 µM.
CC(C)(C)OC(=O)NCC(=O)N(CCc1ccc(Cl)c(Cl)c1)CCN1CCCC1 was tested, and the TGI (BT-549 breast) was 42.1 µM, the TGI (COLO 205 colon) was 30 µM and the TGI (HCT-15 colon) was 37.4 µM. The TGI (IGROV1 ovarian) was 31.5 µM, the TGI (K-562 leukemia) was 25.1 µM and the TGI (M14 melanoma) was 28.6 µM. The TGI (MALME-3M melanoma) was 36.4 µM, the TGI (NCI/ADR-RES ovarian) was 36.7 µM and the TGI (OVCAR-4 ovarian) was 54.9 µM. The TGI (RPMI-8226 leukemia) was 23.8 µM, the TGI (SK-MEL-2 melanoma) was 31.3 µM and the TGI (SN12C renal) was 32.7 µM. It also gave a TGI (SNB-75 CNS) of 37.2 µM and a TGI (T-47D breast) of 53.5 µM.
With C=CCN1C(=O)/C(=C/c2ccc(OC)cc2)N=C1SC1OC(COC(C)=O)C(OC(C)=O)C(OC(C)=O)C1OC(C)=O (configuration not stated) the TGI (BT-549 breast) was 38.1 µM and 96.1 µM, the TGI (COLO 205 colon) was over 100 µM and the TGI (HCT-15 colon) was over 100 µM. For the same compound, the GI50 (IGROV1 ovarian) was 20.4 µM and 75.4 µM, the TGI (IGROV1 ovarian) was over 100 µM and the TGI (K-562 leukemia) was over 100 µM. The TGI (M14 melanoma) was over 100 µM, the TGI (MALME-3M melanoma) was over 100 µM and the TGI (NCI/ADR-RES ovarian) was over 100 µM. The TGI (OVCAR-4 ovarian) was 15 µM and > 100 µM, the TGI (RPMI-8226 leukemia) was over 100 µM and the GI50 (SK-MEL-2 melanoma) was 21.1 µM and 51.7 µM. For the same compound, the TGI (SK-MEL-2 melanoma) was 54.8 µM and > 100 µM, the TGI (SN12C renal) was 89.4 µM and the TGI (SNB-75 CNS) was 40.7 µM and > 100 µM. For the same compound, the TGI (T-47D breast) was 67.5 µM.
O=C1CC2(CCNCC2)C(=O)N1N1CCCCC1 showed a TGI (BT-549 breast) of over 100 µM, a TGI (COLO 205 colon) of over 100 µM and a TGI (HCT-15 colon) of over 100 µM. The TGI (IGROV1 ovarian) was over 100 µM, the TGI (K-562 leukemia) was over 100 µM and the TGI (M14 melanoma) was over 100 µM. It also gave a TGI (MALME-3M melanoma) of over 100 µM, a TGI (NCI/ADR-RES ovarian) of over 100 µM and a TGI (OVCAR-4 ovarian) of over 100 µM. For the same compound, the TGI (RPMI-8226 leukemia) was over 100 µM, the TGI (SK-MEL-2 melanoma) was over 100 µM and the TGI (SN12C renal) was over 100 µM. The TGI (SNB-75 CNS) was over 100 µM and the TGI (T-47D breast) was over 100 µM.
